Read-outs that look alike come from different tables or passages of the source.
Legend:
HCV replicon cells = experiment: HCV replicon FRET assay; format: cell-based; settings: Hepatitis C virus
Source text: FRET Assay Preparation. To perform the HCV FRET screening assay, 96-well cell culture plates were used. The FRET peptide (Anaspec, Inc.) (Taliani et al., Anal. Biochem. 1996, 240, 60-67) contains a fluorescence donor, EDANS, near one end of the peptide and an acceptor, DABCYL, near the other end. The fluorescence of the peptide is quenched by […] resonance energy transfer (RET) between the donor and the acceptor, but as the NS3 protease cleaves the peptide the products are released from RET quenching and the fluorescence of the donor becomes apparent. The assay reagent was made as follows: 5× cell Luciferase cell culture lysis reagent from Promega (#E153A) diluted to 1× with dH2O, NaCl added to 150 mM final, the FRET peptide diluted to 20 μM final from a 2 mM stock.
To prepare plates, HCV replicon cells, with or without a Renilla luciferase reporter gene, were trypsinized and placed into each well of a 96-well plate with titrated test compounds added in columns 3 through 12; columns 1 and 2 contained a control compound (HCV protease inhibitor), and the bottom row contained cells without compound. The plates were then placed in a CO2 incubator at 37° C.
Assays. Subsequent to addition of the test compounds described above (FRET Assay Preparation), at various times the plate was removed and Alamar blue solution (Trek Diagnostics, #00-100) was added per well as a measure of cellular toxicity. After reading in a Cytoflour 4000 instrument (PE Biosystems), plates were rinsed with PBS and then used for FRET assay by the addition of 30 ul of the FRET peptide assay reagent described above (FRET Assay Preparation) per well. The plate was then placed into the Cytoflour 4000 instrument which had been set to 340 excite/490 emission, automatic mode for 20 cycles and the plate read in a kinetic mode. Typically, the signal to noise using an endpoint analysis after the reads was at least three-fold. Alternatively, after Alamar blue reading, plates were rinsed with PBS, 50 ul of DMEM (high glucose) without phenol red was added and plates were then used for luciferase assay using the Promega Dual-Glo Luciferase Assay System.
Compound analysis was determined by quantification of the relative HCV replicon inhibition and the relative cytotoxicity values. To calculate cytoxicity values, the average Alamar Blue fluorescence signals from the control wells were set as 100% non-toxic. The individual signals in each of the compound test wells were then divided by the average control signal and multiplied by 100% to determine […]. To calculate the HCV replicon inhibition values, an average background value was obtained from the two wells containing the highest amount of HCV protease inhibitor at the end of the assay period. These numbers were similar to those obtained from naïve Huh-7 cells.
The background numbers were then subtracted from the average signal obtained from the control wells and this number was used as 100% activity. The individual signals in each of the compound test wells were then divided by the averaged control values after background subtraction and multiplied by 100% to determine percent activity. EC50 values for a protease inhibitor titration were calculated as the concentration which caused a 50% reduction in FRET or luciferase activity. The two numbers generated for the compound plate, percent cytoxicity and percent activity were used to determine compounds of interest for further analysis.

HCV NS5B = biological target: T1, HCV NS5B (Hepatitis C virus genotype 1b, UniProt Q9WMX2); experiment: Modified HCV NS5B RdRp enzyme assay (preincubation protocol); format: biochemical
T1 construct: The cDNA encoding the NS5B protein of HCV, genotype 1b; made in house; host or cells: E. coli BL21(DE3)
T1 sequence (Q9WMX2 2420-2992): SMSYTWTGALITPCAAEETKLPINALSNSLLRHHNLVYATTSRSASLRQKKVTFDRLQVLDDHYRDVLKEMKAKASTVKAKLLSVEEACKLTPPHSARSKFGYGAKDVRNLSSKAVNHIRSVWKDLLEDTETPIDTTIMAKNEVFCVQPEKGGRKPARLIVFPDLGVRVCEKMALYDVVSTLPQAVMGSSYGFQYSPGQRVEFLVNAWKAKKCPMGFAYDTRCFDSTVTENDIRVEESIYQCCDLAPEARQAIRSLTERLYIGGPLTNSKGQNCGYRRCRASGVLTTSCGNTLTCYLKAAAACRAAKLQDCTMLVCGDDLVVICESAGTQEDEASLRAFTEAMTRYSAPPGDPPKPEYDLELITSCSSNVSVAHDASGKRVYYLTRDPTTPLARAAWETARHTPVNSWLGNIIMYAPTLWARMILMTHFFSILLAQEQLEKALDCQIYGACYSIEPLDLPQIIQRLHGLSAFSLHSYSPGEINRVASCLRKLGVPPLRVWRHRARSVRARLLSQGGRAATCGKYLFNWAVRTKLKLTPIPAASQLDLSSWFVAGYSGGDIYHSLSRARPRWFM
Method: HCV NS5B RdRp cloning, expression, and purification. The cDNA encoding the NS5B protein of HCV, genotype 1b, was cloned into the pET21a expression vector. The protein was expressed with an 18 amino acid C-terminal truncation to enhance the solubility. The E. coli competent cell line BL21(DE3) was used for expression of the protein. Cultures were grown at 37° C. for ˜4 hours until the cultures reached an optical density of 2.0 at 600 nm. The cultures were cooled to 20° C. and induced with 1 mM IPTG. Fresh ampicillin was added to a final concentration of 50 μg/ml and the cells were grown overnight at 20° C.
Cell pellets (3 L) were lysed for purification to yield 15-24 mgs of purified NS5B. The lysis buffer consisted of 20 mM Tris-HCl, pH 7.4, 500 mM NaCl, 0.5% triton X-100, 1 mM DTT, 1 mM EDTA, 20% glycerol, 0.5 mg/ml lysozyme, 10 mM MgCl2, 15 ug/ml deoxyribonuclease I, and Complete™ protease inhibitor tablets (Roche). After addition of the lysis buffer, frozen cell pellets were resuspended using a tissue homogenizer. To reduce the viscosity of the sample, aliquots of the lysate were sonicated on ice using a microtip attached to a Branson sonicator. The sonicated lysate was centrifuged at 100,000×g for 1 hr at 4° C. and filtered through a 0.2 μm filter unit (Corning).
The protein was purified using three sequential chromatography steps: Heparin sepharose CL-6B, polyU sepharose 4B, and Hitrap SP sepharose (Pharmacia). The chromatography buffers were identical to the lysis buffer but contained no lysozyme, deoxyribonuclease I, MgCl2 or protease inhibitor and the NaCl concentration of the buffer was adjusted according to the requirements for charging the protein onto the column. Each column was eluted with a NaCl gradient which varied in length from 5-50 column volumes depending on the column type. After the final chromatography step, the resulting purity of the enzyme is >90% based on SDS-PAGE analysis. The enzyme was aliquoted and stored at −80° C.
Standard HCV NS5B RdRp enzyme assay. HCV RdRp genotype 1b assays were run in a final volume of 60 μl in 96 well plates (Costar 3912). The assay buffer is composed of 20 mM Hepes, pH 7.5, 2.5 mM KCl, 2.5 mM MgCl2, 1 mM DTT, 1.6 U RNAse inhibitor (Promega N2515), 0.1 mg/ml BSA (Promega R3961), and 2% glycerol. All compounds were serially diluted (3-fold) in DMSO and diluted further in water such that the final concentration of DMSO in the assay was 2%. HCV RdRp genotype 1b enzyme was used at a final concentration of 28 nM. A polyA template was used at 6 nM, and a biotinylated oligo-dT12 primer was used at 180 nM final concentration. Template was obtained commercially (Amersham 27-4110). Biotinylated primer was prepared by Sigma Genosys. 3H-UTP was used at 0.6 μCi (0.29 μM total UTP). Reactions were initiated by the addition of enzyme, incubated at 30° C. for 60 min, and stopped by adding 25 μl of 50 mM EDTA containing SPA beads (4 μg/μl, Amersham RPNQ 0007). Plates were read on a Packard Top Count NXT after >1 hr incubation at room temperature.
Modified HCV NS5B RdRp enzyme assay. A modified enzyme assay was performed essentially as described for the standard enzyme assay except for the following: The biotinylated oligo dT12 primer was precaptured on streptavidin-coated SPA beads by mixing primer and beads in assay buffer and incubating at room temperature for one hour. Unbound primer was removed after centrifugation. The primer-bound beads were resuspended in 20 mM Hepes buffer, pH 7.5 and used in the assay at final concentrations of 20 nM primer and 0.67 μg/μl beads. Order of addition in the assay: enzyme (14 nM) was added to diluted compound followed by the addition of a mixture of template (0.2 nM), 3H-UTP (0.6 μCi, 0.29 μM), and primer-bound beads, to initiate the reaction; concentrations given are final. Reactions were allowed to proceed for 4 hours at 30° C.
IC50 values for compounds were determined using seven different [I]. […]

[1] = preincubation protocol, read-out: IC50

SMILES	EC50 (HCV replicon cells; FRET assay, read-out: EC50) [µM]	IC50 (HCV NS5B; [1]) [µM]	EC50 (HCV replicon cells) [µM]	IC50 (HCV NS5B) [µM]
COc1ccc2c(c1)C=C(c1ncccc1C(=O)N1CCC(O)CC1)Cn1c-2c(C2CCCCC2)c2ccc(C(=O)NS(=O)(=O)N(C)C)cc21	0.00458 to 0.5	0.00458 to 0.5	–	–
COc1ccc2c(c1)C=C(c1ccccc1CN1CCOCC1)Cn1c-2c(C2CCCCC2)c2ccc(C(=O)NS(=O)(=O)C(C)C)cc21	0.00458 to 0.5	0.00458 to 0.5	–	–
COc1ccc2c(c1)C=C(c1ncccc1S(=O)(=O)N1C3CCC1CN(C)C3)Cn1c-2c(C2CCCCC2)c2ccc(C(=O)NS(=O)(=O)N(C)C)cc21	–	–	0.00458 to 0.5	0.00458 to 0.5
COc1ccc2c(c1)C=C(c1ncccc1C(=O)N1CCN(C)CC1)Cn1c-2c(C2CCCCC2)c2ccc(C(=O)NS(=O)(=O)N(C)C)cc21	0.00458 to 0.5	0.00458 to 0.5	–	–
COc1ccc2c(c1)C=C(c1cc(C(F)(F)F)ccc1N1CCOCC1)Cn1c-2c(C2CCCCC2)c2ccc(C(=O)NS(=O)(=O)C(C)C)cc21	> 0.5	> 0.5	–	–
COc1ccc2c(c1)C=C(c1ncccc1N1CC(C)(C)C1=O)Cn1c-2c(C2CCCCC2)c2ccc(C(=O)O)cc21	0.00458 to 0.5	0.00458 to 0.5	–	–
COc1ccc2c(c1)C=C(c1ccccc1CS(C)(=O)=O)Cn1c-2c(C2CCCCC2)c2ccc(C(=O)NS(=O)(=O)C(C)C)cc21	0.00458 to 0.5	0.00458 to 0.5	–	–
COc1ccc2c(c1)C=C(c1cccc3c1OCCO3)Cn1c-2c(C2CCCCC2)c2ccc(C(=O)NS(=O)(=O)C(C)C)cc21	> 0.5	0.00458 to 0.5	–	–
COc1ccc2c(c1)CC(c1ncccc1C(=O)N1CCOCC1)Cn1c-2c(C2CCCCC2)c2ccc(C(=O)NS(=O)(=O)N(C)C)cc21 (stereo not drawn)	0.00458 to 0.5	0.00458 to 0.5	–	–
COc1ccc2c(c1)C=C(c1ncccc1C(=O)N1CCN(C)CC1)Cn1c-2c(C2CCCCC2)c2ccc(C(=O)O)cc21	0.00458 to 0.5	0.00458 to 0.5	–	–
COc1ccc2c(c1)C=C(c1ccccc1C(=O)N1C3CCC1CN(C)C3)Cn1c-2c(C2CCCCC2)c2ccc(C(=O)OC(C)(C)C)cc21	–	–	> 0.5	> 0.5
COc1ccc2c(c1)C=C(c1ncccc1C(=O)N1C3CCC1CN(C)C3)Cn1c-2c(C2CCCCC2)c2ccc(C(=O)O)cc21	–	–	0.00458 to 0.5	0.00458 to 0.5
COc1ccc2c(c1)C=C(c1ncccc1C(=O)N(C)C)Cn1c-2c(C2CCCCC2)c2ccc(C(=O)O)cc21	0.00458 to 0.5	0.00458 to 0.5	–	–
COc1ccc2c(c1)C=C(c1ncccc1C(=O)N1CCCC1)Cn1c-2c(C2CCCCC2)c2ccc(C(=O)O)cc21	0.00458 to 0.5	0.00458 to 0.5	–	–
COc1ccc2c(c1)CC(c1cc(C(=O)N3CCOCC3)ccn1)Cn1c-2c(C2CCCCC2)c2ccc(C(=O)NS(=O)(=O)N(C)C)cc21 (stereo not drawn)	0.00458 to 0.5	0.00458 to 0.5	–	–
COc1ccc2c(c1)C=C(c1ccccc1C(F)(F)F)Cn1c-2c(C2CCCCC2)c2ccc(C(=O)NS(=O)(=O)C(C)C)cc21	> 0.5	0.00458 to 0.5	–	–
COc1ccc2c(c1)C=C(c1ncccc1C(=O)N1C3CCC1CN(C)C3)Cn1c-2c(C2CCCCC2)c2ccc(C(=O)NS(=O)(=O)N(C)C)cc21	–	–	0.00458 to 0.5	0.00458 to 0.5
COc1ccc2c(c1)CC(c1cccc(N3CCOCC3)n1)Cn1c-2c(C2CCCCC2)c2ccc(C(=O)NS(=O)(=O)N(C)C)cc21 (stereo not drawn)	0.00458 to 0.5	0.00458 to 0.5	–	–
COc1ccc2c(c1)CC(c1cccc(OCCN(C)C)c1)Cn1c-2c(C2CCCCC2)c2ccc(C(=O)NS(=O)(=O)C(C)C)cc21 (stereo not drawn)	0.00458 to 0.5	0.00458 to 0.5	–	–
COc1ccc2c(c1)C=C(c1cc(C(=O)N3CCOCC3)ccn1)Cn1c-2c(C2CCCCC2)c2ccc(C(=O)O)cc21	> 0.5	> 0.5	–	–
COc1ccc2c(c1)C=C(c1ccccc1S(=O)(=O)N1CCCC1)Cn1c-2c(C2CCCCC2)c2ccc(C(=O)NS(=O)(=O)C(C)C)cc21	> 0.5	0.00458 to 0.5	–	–
COc1ccc2c(c1)C=C(c1ccccc1OC(F)(F)C(F)(F)F)Cn1c-2c(C2CCCCC2)c2ccc(C(=O)NS(=O)(=O)C(C)C)cc21	> 0.5	0.00458 to 0.5	–	–
COc1ccc2c(c1)C=C(c1ncccc1C(=O)N(C)C)Cn1c-2c(C2CCCCC2)c2ccc(C(=O)NS(=O)(=O)N(C)C)cc21	0.00458 to 0.5	0.00458 to 0.5	–	–
COc1ccc2c(c1)C=C(c1ccccc1C(=O)N1C3CCC1CN(C)C3)Cn1c-2c(C2CCCCC2)c2ccc(C(=O)NS(=O)(=O)C(C)C)cc21	–	–	0.00458 to 0.5	0.00458 to 0.5
COc1ccc2c(c1)C=C(c1cccc(N3CCOCC3)n1)Cn1c-2c(C2CCCCC2)c2ccc(C(=O)NS(=O)(=O)N(C)C)cc21	0.00458 to 0.5	0.00458 to 0.5	–	–
COc1ccc2c(c1)C=C(c1c(F)cccc1C(F)(F)F)Cn1c-2c(C2CCCCC2)c2ccc(C(=O)NS(=O)(=O)C(C)C)cc21	0.00458 to 0.5	0.00458 to 0.5	–	–
COc1ccc2c(c1)C=C(c1ccc3sc(C)nc3c1)Cn1c-2c(C2CCCCC2)c2ccc(C(=O)O)cc21	> 0.5	0.00458 to 0.5	–	–
COc1ccc2c(c1)C=C(c1ncccc1C(=O)N1CCOCC1)Cn1c-2c(C2CCCCC2)c2ccc(C(=O)O)cc21	0.00458 to 0.5	0.00458 to 0.5	–	–
COc1ccc2c(c1)C=C(c1cc([N+](=O)[O-])c3[nH]ccc3c1)Cn1c-2c(C2CCCCC2)c2ccc(C(=O)O)cc21	> 0.5	0.00458 to 0.5	–	–
COc1ccc2c(c1)C1CC1(c1ncccc1C(=O)N1CCN(C)CC1)Cn1c-2c(C2CCCCC2)c2ccc(C(=O)NS(=O)(=O)N(C)C)cc21 (stereo not drawn)	0.00458 to 0.5	0.00458 to 0.5	–	–
